According to PMC12112476, “Mass Spectrometric ITEM-FOUR Analysis Reveals Coding Single-Nucleotide Polymorphisms in Human Cardiac Troponin T That Evade Detection by Sandwich ELISAs Which Use Monoclonal Antibodies M7 and M11.7 from the Elecsys Troponin T® Assay” (International Journal of Molecular Sciences, 2025):

How the values were obtained:
[1] = tested on: monoclonal anti-hcTnT antibody M11.7; experiment: ITEM-FOUR nano-ESI mass spectrometry: in-solution immune complex formation and gas-phase dissociation of M11.7 antibody–epitope peptide complexes; type: binding; details: for dx (V): Boltzmann curve parameter; for dx (V) / ΔCV50 (V) / Slope (%/V) / Δ (% pts) / in-solution immune complex formation with M11.7 (binding in words): peptide:antibody 13:1; for dx (V) / ΔCV50 (V) / Final (%) / Initial (%) / Slope (%/V): averaged from two acquisitions; for Binding Type: class by difference of normalized product ion intensities over ΔCV; for ΔCV50 (V): collision cell voltage difference for 50% dissociation, Boltzmann fit; for Final (%): normalized product ion quantity at highest applied ΔCV, peptide:antibody 13:1, 200 mM ammonium acetate pH 6.7; for Initial (%): normalized product ion quantity at lowest applied ΔCV, peptide:antibody 13:1, 200 mM ammonium acetate pH 6.7, at least 1 h RT, nano-ESI, ΔCV 0-58 V; for Slope (%/V): slope of Boltzmann curve; for Δ (% pts): difference Final minus Initial normalized product ion intensity; for in-solution immune complex formation with M11.7 (binding in words): nano-ESI-MS, 200 mM ammonium acetate pH 6.7; for KD m0g# [Ø]: apparent gas-phase dissociation constant, dimensionless number, extrapolated to ambient temperature; for ΔGm0g# / Tamb ΔSm0g# / ΔHm0g#: pseudo thermodynamic value of gas-phase complex dissociation; for ΔGm0g#: Ellingham diagram read at Tamb; for Tamb ΔSm0g# / ΔHm0g#: extrapolated to Tamb
Protocol: (§1) Immune complex-containing solutions of a wild-type epitope peptide and its corresponding antibody, e.g., P11 and M7, were prepared by mixing the two components in 200 mM ammonium acetate buffer (pH 6.7), ensuring a molar excess of the epitope peptide over the antibody to achieve binding saturation. After an incubation period of one hour, the entire mixture (~3 µL) was loaded into a nano-ESI emitter and electrosprayed. The mass spectrometer was configured to transmit only ion signals with m/z values above 3850, effectively eliminating signals from the unbound peptide (Figure 1A).
(§2) Antibody–peptide mixture solutions were prepared for ITEM FOUR experiments by mixing 5 µL of one antibody working solution with one assigned peptide working solution to generate antibody to peptide molar ratios of 1:2.1 for all solutions that contained the M7 antibody. For mixture solutions containing the M11.7 or the anti-TNFα antibody, 1:13 molar ratios were prepared. Antibodies were incubated together with peptides for at least one hour at room temperature prior to analysis.
(§3) Data acquisition for ITEM-FOUR experiments was performed as described in [18] with the Synapt G2S mass spectrometer (Waters MS-Technologies, Wilmslow, UK) and with the following instrumental settings: source temperature, 40 °C; capillary voltage, 1.0–1.3 kV; sample cone voltage, 130 V; source offset voltage, 130 V; trap gas flow (argon), 8.0 mL/min; helium gas: 20 bar. All mass spectra were acquired in positive-ion mode applying a mass window of m/z 200–8000. The quadrupole analyzer was used to block transmission of lower-molecular-mass ions: M1 = 5000 with dwell time of 25% and ramp time of 25%; M2 = 5000 with dwell time of 25% and ramp time of 25%; M3 = 5000. ΔCV in the TRAP collision cell was increased stepwise as follows: 0, 2, 6, 10, 14, 18, 22, 26, 30, 34, 40, 46, 52 and 58 V. The ion mobility separation mode was not used. All acquired scans during a given collision cell voltage difference setting were integrated to obtain an averaged spectrum from which ion intensities were extracted for ITEM-FOUR calculations. Data were acquired and processed with MassLynx software version 4.1 (Waters MS-Technologies). For exact time stamps of all measurements, refer to Table S2 in the Supplement (see also the deposited raw data supplement in the PRIDE directory). All mass spectra for each ΔCV setting were smoothed using the Savitzky-Golay method. Spectra of antibody solutions and antibody–peptide mixture solutions were smoothed using 30 cycles with a 15-mass unit window at the high mass end and at the low mass end with 3 cycles and a 2-mass unit window. All measurements were recorded in duplicate. The mass spectrometric raw data have been deposited via the ProteomeXchange Consortium in the PRIDE partner repository with the dataset identifier PXD058812 [70].
(§4) The Origin Pro 2023b (64-bit, OriginLab Corporation, Northampton, MA, USA) software package with an automation script for processing multiple datasets was used to graphically plot the extracted intensities of the ion signals of all relevant molecular entities (the immune complex with two bound peptides, the immune complex with one bound peptide, free antibodies, and free peptides) against their corresponding charge state for each collision cell voltage difference (ΔCV). Subsequently, Gaussian curve fittings were performed separately for each molecular entity. […] Iterations were performed for R2 values to be at least 0.91. Apices of Gaussian curves provided the intensities and the average m/z values for each molecular species. Intensity values of individual molecular entities (educts and products) were summed and normalized. Normalized intensities of educts and products from duplicate measurements were averaged.
(§5) The number of atoms from rituximab was used because the amino acid sequences of neither the M7 nor the M11.7 antibody were disclosed. […]

[2] = tested on: monoclonal anti-hcTnT antibody M7; experiment: ITEM-FOUR nano-ESI mass spectrometry: in-solution immune complex formation and gas-phase dissociation of M7 antibody–epitope peptide complexes; type: binding; details: for dx (V): Boltzmann curve parameter; for dx (V) / ΔCV50 (V) / Slope (%/V): peptide:antibody 2.1:1; for dx (V) / ΔCV50 (V) / Final (%) / Initial (%) / Slope (%/V): averaged from two acquisitions; for KD m0g# [Ø]: apparent gas-phase dissociation constant, dimensionless number, extrapolated to ambient temperature; for Binding Type: class by difference of normalized product ion intensities over ΔCV; for ΔCV50 (V): collision cell voltage difference for 50% dissociation, Boltzmann fit; for Final (%): normalized product ion quantity at highest applied ΔCV, peptide:antibody 2.1:1, 200 mM ammonium acetate pH 6.7; for Initial (%): normalized product ion quantity at lowest applied ΔCV, peptide:antibody 2.1:1, 200 mM ammonium acetate pH 6.7, at least 1 h RT, nano-ESI, ΔCV 0-58 V; for ΔGm0g# / Tamb ΔSm0g# / ΔHm0g#: pseudo thermodynamic value of gas-phase complex dissociation; for ΔGm0g#: Ellingham diagram read at Tamb; for Tamb ΔSm0g# / ΔHm0g#: extrapolated to Tamb; for Slope (%/V): slope of Boltzmann curve
Protocol: as §1, §2, §3, §4, §5

Sequence | dx (V) [1] | Binding Type [1] | ΔCV50 (V) [1] | Final (%) [1] | Initial (%) [1] | Slope (%/V) [1] | other results
AEQQCIRNEREKERQ [Peptide P25] | 6.00 V | unorthodox (Differences in normalized product ion intensities were less than 15 percentage points, but greater than 5 percentage points) | 10.06 V | 93.33% | 80.75% | 0.52 %/V | 
AEQQHIRNEREKERQ [Peptide P27] | 7.60 V | unorthodox (Differences in normalized product ion intensities were less than 15 percentage points, but greater than 5 percentage points) | 14.04 V | 93.49% | 80.22% | 0.44 %/V | 
AEQQRIQNEREKERQ [Peptide P29] | 5.17 V | unorthodox (Differences in normalized product ion intensities were less than 15 percentage points, but greater than 5 percentage points) | 9.96 V | 93.92% | 84.39% | 0.46 %/V | Δ (% pts) [1]: 9.53 % pts
AEQQRIRNEQEKERQ [Peptide P31] |  | non-binding (The differences in normalized product intensity values were less than 5 percentage points) |  | 93.39% | 93.60% |  | in-solution immune complex formation with M11.7 (binding in words) [1]: Loss of binding
AEQQRIRNERKKERQ [Peptide P32] | 7.32 V | orthodox (The differences in normalized product ion intensity values were always greater than 15 percentage points) | 17.63 V | 96.03% | 69.09% | 0.92 %/V | KD m0g# [Ø] [1]: 1.43 Ø; ΔGm0g# [1]: -0.88 kJ/mol; Tamb ΔSm0g# [1]: 51.23 kJ/mol; ΔHm0g# [1]: 50.35 kJ/mol
AEQQRIRNEWEKERQ [Peptide P30] |  | non-binding (The differences in normalized product intensity values were less than 5 percentage points) |  | 94.03% | 90.48% |  | in-solution immune complex formation with M11.7 (binding in words) [1]: Loss of binding
AEQQRIWNEREKERQ [Peptide P28] | 6.90 V | unorthodox (Differences in normalized product ion intensities were less than 15 percentage points, but greater than 5 percentage points) | 13.80 V | 93.90% | 86.91% | 0.25 %/V | Δ (% pts) [1]: 6.99 % pts
AEQQSIRNEREKERQ [Peptide P26] | 6.49 V | unorthodox (Differences in normalized product ion intensities were less than 15 percentage points, but greater than 5 percentage points) | 26.67 V | 86.48% | 80.48% | 0.25 %/V | Δ (% pts) [1]: 6.00 % pts
AEQRRIRNEREKERQ [Peptide P24] |  | non-binding (The differences in normalized product intensity values were less than 5 percentage points) |  | 93.57% | 90.25% |  | in-solution immune complex formation with M11.7 (binding in words) [1]: Loss of binding
AKQQRIRNEREKERQ [Peptide P23] | 7.29 V | orthodox (The differences in normalized product ion intensity values were always greater than 15 percentage points) | 22.47 V | 89.77% | 67.00% | 0.78 %/V | KD m0g# [Ø] [1]: 1.18 Ø; ΔGm0g# [1]: -0.42 kJ/mol; Tamb ΔSm0g# [1]: 37.81 kJ/mol; ΔHm0g# [1]: 37.41 kJ/mol
AQQQRIRNEREKERQ [Peptide P22] | 7.70 V | unorthodox (Differences in normalized product ion intensities were less than 15 percentage points, but greater than 5 percentage points) | 25.18 V | 97.12% | 87.08% | 0.33 %/V | 
LVSLKDRIERCRAER [Peptide P13] |  |  |  |  |  |  | dx (V) [2]: 6.55 V; KD m0g# [Ø] [2]: 0.28 Ø; Binding Type [2]: orthodox (The differences in normalized product ion intensity values were always greater than 15 percentage points); ΔCV50 (V) [2]: 23.30 V; Final (%) [2]: 83.40%; Initial (%) [2]: 40.36%; ΔGm0g# [2]: 3.17 kJ/mol; Tamb ΔSm0g# [2]: 51.99 kJ/mol; ΔHm0g# [2]: 55.16 kJ/mol; Slope (%/V) [2]: 1.64 %/V
LVSLKDRIERRGAER [Peptide P15] |  |  |  |  |  |  | dx (V) [2]: 6.09 V; Binding Type [2]: unorthodox (Differences in normalized product ion intensities were less than 15 percentage points, but greater than 5 percentage points); ΔCV50 (V) [2]: 24.89 V; Final (%) [2]: 84.98%; Initial (%) [2]: 70.69%; Slope (%/V) [2]: 0.59 %/V
LVSLKDRIERRPAER [Peptide P16] |  |  |  |  |  |  | dx (V) [2]: 5.05 V; KD m0g# [Ø] [2]: 0.48 Ø; Binding Type [2]: orthodox (The differences in normalized product ion intensity values were always greater than 15 percentage points); ΔCV50 (V) [2]: 15.83 V; Final (%) [2]: 96.90%; Initial (%) [2]: 55.34%; ΔGm0g# [2]: 1.84 kJ/mol; Tamb ΔSm0g# [2]: 83.77 kJ/mol; ΔHm0g# [2]: 85.61 kJ/mol; Slope (%/V) [2]: 2.06 %/V
